Values quoted from earlier work as cited in patent US20250339472A1 (priority 2024, published 2025).
Like-named read-outs stand apart in the source and are kept apart here.

Key:
[1] = dog, in vivo
acetylcholinesterase = acetylcholinesterase (Homo sapiens, UniProt P22303)
Sequence of acetylcholinesterase (P22303 32-614, species assumed): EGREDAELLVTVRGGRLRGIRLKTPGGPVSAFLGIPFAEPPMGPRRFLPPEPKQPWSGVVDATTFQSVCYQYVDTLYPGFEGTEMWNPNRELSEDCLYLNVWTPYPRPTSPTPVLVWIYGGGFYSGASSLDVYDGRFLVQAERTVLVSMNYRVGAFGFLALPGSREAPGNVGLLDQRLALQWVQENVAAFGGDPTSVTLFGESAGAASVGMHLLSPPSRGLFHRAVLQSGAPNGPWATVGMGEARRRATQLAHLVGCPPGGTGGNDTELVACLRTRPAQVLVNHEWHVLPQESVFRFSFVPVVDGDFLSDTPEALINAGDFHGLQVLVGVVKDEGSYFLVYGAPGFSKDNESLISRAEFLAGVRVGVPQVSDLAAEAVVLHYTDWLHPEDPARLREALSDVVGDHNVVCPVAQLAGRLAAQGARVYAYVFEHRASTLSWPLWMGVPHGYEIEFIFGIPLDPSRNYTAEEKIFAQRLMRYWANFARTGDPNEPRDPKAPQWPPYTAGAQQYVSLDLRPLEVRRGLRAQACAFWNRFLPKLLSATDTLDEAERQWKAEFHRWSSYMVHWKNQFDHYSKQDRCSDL

Question: With `CC1=C(/C=C/C(C)=C/C=C/C(C)=C/C=C/C=C(C)/C=C/C=C(C)/C=C/C2=C(C)C(=O)[C@@H](O)CC2(C)C)C(C)(C)C[C@H](O)C1=O` [Astaxanthin—AstaReal®, Astaxanthin] as the compound, how does the efficacy levels [1] read?
Answer: 0.3 mg/kg/day

Question: For `COc1cc(/C=C/C(=O)CC(=O)/C=C/c2ccc(O)c(OC)c2)ccc1O` [Curcumin], which “inhibition of acetylcholinesterase activity” value (acetylcholinesterase) is on record?
Answer: inhibits

Question: What does the source list for Hyaluronic Acid?
Answer: Safety levels (more than 26 kg body weight): 54 mg of HA per day; Safety levels (up to 26 kg body weight): 27 mg of HA per day
